Data as given in publication PMC12186298, “Phase 1 clinical trial of eneboparatide, a novel PTH receptor 1 agonist” (Endocrine Connections, 2025).
Peptide text beside a SMILES is read from it.

Experiments:
healthy subjects [1] = test: Antidrug antibodies (ADA) in plasma, Part B; type: in vivo, human; settings: following 14 days of administration
Experimental: (§1) Safety and tolerability assessments consisted of adverse events (AEs), clinical laboratory (clinical chemistry, haematology, coagulation, and urinalysis), vital signs (blood pressure, pulse rate, respiratory rate, and temperature), 12-lead ECG (Part B), 24 h continuous cardiac monitoring (telemetry; Part A), body weight, physical examination, injection site reaction, and measurement of antidrug antibodies (ADA) in plasma (Part B).

patients with cHP = tested on: patients with cHP; design: method as in PMID 38449442; settings: 3 months; cited from earlier work
healthy subjects [2] = test: Safety and tolerability, adverse events, Part B MAD; settings: Part B, n = 8
Experimental: A total of five sequential cohorts were included in Part B with ten subjects in each cohort (eight receiving eneboparatide at a dose of 10, 20, 40, 60 and 80 μg/day, respectively, and two receiving placebo in a randomized and double-blind manner). […] They were resident in the study unit until day 17 and FU evaluation was performed on day 21–25.
as §1

SMILES: CC[C@H](C)[C@H](NC(=O)[C@H](CCC(=O)O)NC(=O)[C@H](C)NC(=O)[C@@H](NC(=O)[C@H](Cc1c[nH]cn1)NC(=O)[C@@H](NC(=O)[C@H](CCC(=O)O)NC(=O)[C@H](C)NC(=O)[C@@H](NC(=O)[C@H](CC(C)C)NC(=O)[C@H](CCCCN)NC(=O)[C@H](Cc1c[nH]cn1)NC(=O)[C@H](CC(C)C)NC(=O)[C@H](Cc1ccccc1)NC(=O)[C@H](C)NC(=O)[C@H](CCCNC(=N)N)NC(=O)[C@H](CCCNC(=N)N)NC(=O)[C@H](CCCNC(=N)N)NC(=O)[C@H](C)NC(=O)[C@H](CC(=O)O)NC(=O)[C@H](CCC(N)=O)NC(=O)[C@@H](NC(=O)[C@H](Cc1c[nH]c2ccccc12)NC(=O)[C@H](CCCCN)NC(=O)[C@H](C)NC(=O)[C@H](CCCNC(=N)N)NC(=O)[C@H](CCC(N)=O)NC(=O)[C@H](Cc1c[nH]cn1)NC(=O)[C@H](CCSC)NC(=O)[C@H](CC(C)C)NC(=O)[C@H](CCC(N)=O)NC(=O)[C@@H](NC(=O)[C@H](CCC(=O)O)NC(=O)[C@H](C)NC(=O)[C@@H](NC(=O)[C@H](C)N)C(C)C)[C@@H](C)CC)[C@@H](C)CC)[C@@H](C)CC)[C@@H](C)CC)[C@@H](C)O)C(=O)O [eneboparatide] (H-AVAEIQLMHQRAKWIQDARRRAFLHKLIAEIHTAEI-OH; N-terminus and C-terminus assumed)
- anti-eneboparatide antibodies (healthy subjects [1]): no anti-eneboparatide antibodies detected
- tolerability and independence from conventional therapy (patients with cHP): well-tolerated and allowed independence from conventional therapy
- Abdominal pain, subjects with TEAE (healthy subjects [2]; 10 μg/day sc 14 days): 0
- Application site irritation, subjects with TEAE (healthy subjects [2]; 10 μg/day sc 14 days): 0
- Catheter site haematoma, subjects with TEAE (healthy subjects [2]; 10 μg/day sc 14 days): 3
- Catheter site pain, subjects with TEAE (healthy subjects [2]; 10 μg/day sc 14 days): 1
- Decreased appetite, subjects with TEAE (healthy subjects [2]; 10 μg/day sc 14 days): 0
- Diarrhoea, subjects with TEAE (healthy subjects [2]; 10 μg/day sc 14 days): 0
- Dizziness, subjects with TEAE (healthy subjects [2]; 10 μg/day sc 14 days): 0
- Dry skin, subjects with TEAE (healthy subjects [2]; 10 μg/day sc 14 days): 0
- Dyspepsia, subjects with TEAE (healthy subjects [2]; 10 μg/day sc 14 days): 0
- Fatigue, subjects with TEAE (healthy subjects [2]; 10 μg/day sc 14 days): 2
- Flatulence, subjects with TEAE (healthy subjects [2]; 10 μg/day sc 14 days): 1
- Headache, subjects with TEAE (healthy subjects [2]; 10 μg/day sc 14 days): 1
- Injection site erythema, subjects with TEAE (healthy subjects [2]; 10 μg/day sc 14 days): 0
- Injection site haematoma, subjects with TEAE (healthy subjects [2]; 10 μg/day sc 14 days): 3
- Injection site pain, subjects with TEAE (healthy subjects [2]; 10 μg/day sc 14 days): 1
- Injection site pruritus, subjects with TEAE (healthy subjects [2]; 10 μg/day sc 14 days): 0
- Injection site tenderness, subjects with TEAE (healthy subjects [2]; 10 μg/day sc 14 days): 0
- Insomnia, subjects with TEAE (healthy subjects [2]; 10 μg/day sc 14 days): 0
- Muscle spasms, subjects with TEAE (healthy subjects [2]; 10 μg/day sc 14 days): 0
- Myalgia, subjects with TEAE (healthy subjects [2]; 10 μg/day sc 14 days): 1
- Nausea, subjects with TEAE (healthy subjects [2]; 10 μg/day sc 14 days): 0
- Somnolence, subjects with TEAE (healthy subjects [2]; 10 μg/day sc 14 days): 1
- Vomiting, subjects with TEAE (healthy subjects [2]; 10 μg/day sc 14 days): 0
- Abdominal pain, subjects with TEAE (healthy subjects [2]; 20 μg/day sc 14 days): 0
- Application site irritation, subjects with TEAE (healthy subjects [2]; 20 μg/day sc 14 days): 3
- Catheter site haematoma, subjects with TEAE (healthy subjects [2]; 20 μg/day sc 14 days): 0
- Catheter site pain, subjects with TEAE (healthy subjects [2]; 20 μg/day sc 14 days): 0
- Decreased appetite, subjects with TEAE (healthy subjects [2]; 20 μg/day sc 14 days): 0
- Diarrhoea, subjects with TEAE (healthy subjects [2]; 20 μg/day sc 14 days): 1
- Dizziness, subjects with TEAE (healthy subjects [2]; 20 μg/day sc 14 days): 1
- Dry skin, subjects with TEAE (healthy subjects [2]; 20 μg/day sc 14 days): 2
- Dyspepsia, subjects with TEAE (healthy subjects [2]; 20 μg/day sc 14 days): 1
- Fatigue, subjects with TEAE (healthy subjects [2]; 20 μg/day sc 14 days): 0
- Flatulence, subjects with TEAE (healthy subjects [2]; 20 μg/day sc 14 days): 1
- Headache, subjects with TEAE (healthy subjects [2]; 20 μg/day sc 14 days): 1
- Injection site erythema, subjects with TEAE (healthy subjects [2]; 20 μg/day sc 14 days): 1
- Injection site haematoma, subjects with TEAE (healthy subjects [2]; 20 μg/day sc 14 days): 3
- Injection site pain, subjects with TEAE (healthy subjects [2]; 20 μg/day sc 14 days): 0
- Injection site pruritus, subjects with TEAE (healthy subjects [2]; 20 μg/day sc 14 days): 2
- Injection site tenderness, subjects with TEAE (healthy subjects [2]; 20 μg/day sc 14 days): 0
- Insomnia, subjects with TEAE (healthy subjects [2]; 20 μg/day sc 14 days): 1
- Muscle spasms, subjects with TEAE (healthy subjects [2]; 20 μg/day sc 14 days): 0
- Myalgia, subjects with TEAE (healthy subjects [2]; 20 μg/day sc 14 days): 0
- Nausea, subjects with TEAE (healthy subjects [2]; 20 μg/day sc 14 days): 2
- Somnolence, subjects with TEAE (healthy subjects [2]; 20 μg/day sc 14 days): 0
- Vomiting, subjects with TEAE (healthy subjects [2]; 20 μg/day sc 14 days): 0
- Abdominal pain, subjects with TEAE (healthy subjects [2]; 40 μg/day sc 14 days): 1
- Application site irritation, subjects with TEAE (healthy subjects [2]; 40 μg/day sc 14 days): 0
- Catheter site haematoma, subjects with TEAE (healthy subjects [2]; 40 μg/day sc 14 days): 1
- Catheter site pain, subjects with TEAE (healthy subjects [2]; 40 μg/day sc 14 days): 4
- Decreased appetite, subjects with TEAE (healthy subjects [2]; 40 μg/day sc 14 days): 1
- Diarrhoea, subjects with TEAE (healthy subjects [2]; 40 μg/day sc 14 days): 2
- Dizziness, subjects with TEAE (healthy subjects [2]; 40 μg/day sc 14 days): 0
- Dry skin, subjects with TEAE (healthy subjects [2]; 40 μg/day sc 14 days): 0
- Dyspepsia, subjects with TEAE (healthy subjects [2]; 40 μg/day sc 14 days): 2
- Fatigue, subjects with TEAE (healthy subjects [2]; 40 μg/day sc 14 days): 0
- Flatulence, subjects with TEAE (healthy subjects [2]; 40 μg/day sc 14 days): 1
- Headache, subjects with TEAE (healthy subjects [2]; 40 μg/day sc 14 days): 3
- Injection site erythema, subjects with TEAE (healthy subjects [2]; 40 μg/day sc 14 days): 4
- Injection site haematoma, subjects with TEAE (healthy subjects [2]; 40 μg/day sc 14 days): 5
- Injection site pain, subjects with TEAE (healthy subjects [2]; 40 μg/day sc 14 days): 0
- Injection site pruritus, subjects with TEAE (healthy subjects [2]; 40 μg/day sc 14 days): 3
- Injection site tenderness, subjects with TEAE (healthy subjects [2]; 40 μg/day sc 14 days): 0
- Insomnia, subjects with TEAE (healthy subjects [2]; 40 μg/day sc 14 days): 1
- Muscle spasms, subjects with TEAE (healthy subjects [2]; 40 μg/day sc 14 days): 2
- Myalgia, subjects with TEAE (healthy subjects [2]; 40 μg/day sc 14 days): 4
- Nausea, subjects with TEAE (healthy subjects [2]; 40 μg/day sc 14 days): 1
- Somnolence, subjects with TEAE (healthy subjects [2]; 40 μg/day sc 14 days): 3
- Vomiting, subjects with TEAE (healthy subjects [2]; 40 μg/day sc 14 days): 0
